Laboratory results published in patent US7700628B2, “Aromatic ether derivatives useful as thrombin inhibitors” (Eli Lilly and Company, priority 2004, dated 2010).
Structures can show the parent of a compound that is named as a salt. Each block holds one compound with its values, some of them ahead of it.

What was measured:
[1] = biological target: T1, human factor Xa (Homo sapiens, UniProt P00742); assay: Kass determination, chromogenic substrate hydrolysis, factor Xa; format: biochemical; details: apparent association constant, mean value; set range given with 'or greater'
T1 construct: enzyme solution (e.g., human factor Xa, 32 nM in 0.03 M Tris, 0.15 M NaCl, 1 mg/mL HAS)
Protocol: (§1) The inhibition by a compound of the invention of a serine protease of the human blood coagulation system or of the fibrinolytic system, as well as of trypsin, is determined in vitro for the particular enzyme by measuring its inhibitor binding affinity in an assay in which the enzyme hydrolyzes a particular chromogenic substrate, for example as described in Smith, G. F.; Gifford-Moore, D.; Craft, T. J.; Chirgadze, N.; Ruterbories, K. J.; Lindstrom, T. D.; Satterwhite, J. H. Efegatran: A New Cardiovascular Anticoagulant. New Anticoagulants for the Cardiovascular Patient; Pifarre, R., Ed.; Hanley & Belfus, Inc.: Philadelphia, 1997; pp. 265-300. The inhibitor binding affinity is measured as apparent association constant Kass which is the hypothetical equilibrium constant for the reaction between enzyme and the test inhibitor compound (I).
(§2) [formula] [formula] Conveniently, enzyme inhibition kinetics are performed in a high-volume protocol using automated dilutions of inhibitors (n=3 for each of four to eight inhibitor concentrations) into 96-well polystyrene plates and reaction rates are determined from the rate of hydrolysis of appropriate p-nitroanilide substrates at 405 nm using a Thermomax plate reader from Molecular Devices (San Francisco, Calif.). The same general protocol is followed for all enzymes studied: In each well is placed 50 μL buffer (0.06 M Tris, 0.3 M NaCl, pH 7.4), followed by 25 μL of inhibitor solution (in 100 % methanol) and 25 μL enzyme solution (e.g., human factor Xa, 32 nM in 0.03 M Tris, 0.15 M NaCl, 1 mg/mL HAS); finally, within two minutes, 150 μL aqueous solution of chromogenic substrate (e.g., 0.3 mM BzIle-Glu-Gly-Arg-pNA) is added to start the enzymatic reaction. Final factor Xa concentration is 3.2 nM. The rates of chromogenic substrate hydrolysis reactions provide a linear relationship with the enzymes studied such that free enzyme can be quantitated in reaction mixtures. Data is analyzed directly as rates by the Softmax program to produce [free enzyme] calculations for tight-binding Kass determinations. For apparent Kass determinations, human factor Xa is used to hydrolyze BzIle-Glu-Gly- Arg-pNA (SEQ ID NO: 1); 5.9 nM human thrombin is used to hydrolyze 0.2 mM BzPhe-Val-Arg-pNA; 3.4 nM human plasmin is used with 0.5 mM HD-Val-Leu-Lys-pNA; 1.2 nM human nt-PA is used with 0.8 mM HD-Ile-Pro-Arg-pNA; and 0.4 nM urokinase is used with 0.4 mM pyro-Glu-Gly-Arg-pNA.
(§3) Kass is calculated for a range of concentrations of test compounds which produce hydrolysis inhibition of between 20% and 80% of control and the mean value reported in units of liter per mole. […] For example, the respective Kass values as to factor Xa/thrombin for Examples 41, 60, 106, 115, 1403 and 1414 are 407/16.9, 430/4.2, 3630/308, 3013/40 and 3630/308×10^6 L/mole.

[2] = biological target: human thrombin (Homo sapiens, UniProt P00734); assay: Kass determination, chromogenic substrate hydrolysis, thrombin; format: biochemical; details: apparent association constant, mean value; set range given with 'or greater'
Protocol: as §1, §2, §3

T1 sequence (P00742 235-488 limits assumed): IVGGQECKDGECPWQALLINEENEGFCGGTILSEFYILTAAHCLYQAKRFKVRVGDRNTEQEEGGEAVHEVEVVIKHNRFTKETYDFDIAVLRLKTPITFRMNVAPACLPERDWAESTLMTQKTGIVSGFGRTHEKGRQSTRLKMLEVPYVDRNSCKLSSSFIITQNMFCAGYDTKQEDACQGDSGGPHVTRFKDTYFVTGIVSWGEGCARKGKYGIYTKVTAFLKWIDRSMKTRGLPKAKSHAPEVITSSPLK
T1 sequence (P00742 41-179 partner limits assumed): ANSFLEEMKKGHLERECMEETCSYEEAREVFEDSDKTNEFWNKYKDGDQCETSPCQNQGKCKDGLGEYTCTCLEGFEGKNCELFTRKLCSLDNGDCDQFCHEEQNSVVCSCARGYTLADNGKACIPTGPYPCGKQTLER

Structure (SMILES): NCCOc1cc(N2CCOCC2)ccc1C(=O)Nc1ccc(F)cc1C(=O)Nc1ccc(Cl)cn1 [Example 41, 2-[2-(2-Aminoethoxy)-4-(morpholin-4-yl)benzoylamino]-N-(5-chloro-pyridin-2-yl)-5-fluorobenzamide Trifluoroacetate]
Kass for factor Xa [1]: 4.07e+08 L/mol | Kass for thrombin (factor IIa) [2]: 1.69e+07 L/mol

Structure (SMILES): CC(C)(N)c1ccc(C(=O)Nc2ccccc2C(=O)Nc2ccc(Cl)cn2)c(OC2CCNCC2)c1 [Example 60, 2-[4-(1-Amino-1-methyl)ethyl-2-(piperidin-4-yloxy)benzoylamino]-N-(5-chloropyridin-2-yl)benzamide Bis(trifluoroacetate)]
Kass for factor Xa [1]: 4.3e+08 L/mol | Kass for thrombin (factor IIa) [2]: 4.2e+06 L/mol

Structure (SMILES): CSc1ccc(C(=O)Nc2ccc(Cl)cc2C(=O)Nc2ccc(Cl)cn2)c(OCCCN)c1 [Example 106, 2-[2-(3-Aminopropoxy)-4-(methylthio)benzoylamino]-5-chloro-N-(5-chloropyridin-2-yl)benzamide]
Kass for factor Xa [1]: 3.63e+09 L/mol | Kass for thrombin (factor IIa) [2]: 3.08e+08 L/mol

Structure (SMILES): NCCCOc1cc(N2CCOCC2)ccc1C(=O)Nc1ccc(F)cc1C(=O)Nc1ccc(Cl)cn1 [Example 115, 2-[2-(3-Aminopropoxy)-4-(morpholin-4-yl)benzoylamino]-N-(5-chloropyridin-2-yl)-5-fluorobenzamide]
Kass for factor Xa [1]: 3.013e+09 L/mol | Kass for thrombin (factor IIa) [2]: 4e+07 L/mol

Continued, values first:

melting point: 153.6 to 154.5 °C
Structure (SMILES): CC(C)(C)c1ccc(CNc2ccc(Cl)cc2C(=O)Nc2ccc(Cl)cn2)c(OC2CCNCC2)c1 [Example 56, 2-[4-(tert-Butyl)-2-(piperidin-4-yloxy)benzylamino]-5-chloro-N-(5-chloropyridin-2-yl)benzamide]

melting point: 169 to 170 °C
Structure (SMILES): CC(C)(C)c1ccc(CNc2ccccc2C(=O)Nc2ccc(Cl)cn2)c(OC2CCNCC2)c1 [Example 59, 2-[4-(tert-Butyl)-2-(piperidin-4-yloxy)benzylamino]-N-(5-chloro-pyridin-2-yl)benzamide]
